According to patent publication US11389466B2 (priority 2017, dated 2022):
Where “and” joins values, the source holds several entries; their conditions need not be identical. Equal values may be shown once. Read-outs that look alike come from different tables or passages of the source.

Experiments:
AFL lectin = AFL lectin (Aspergillus fumigatus, UniProt Q4WW81); assay: biochemical; type: binding; conditions: for Stoichiometry: amount of ligand bound to a single protein; for β (β-factor, relative potency per ligand): β=(Kd)monovalent/[(Kd)multivalent×Valency], calculated from methylfucoside
[1] = tested on: Aspergillus fumigatus conidia (adhesion on pneumocytes A549); type: cell-based
[2] = Table 2, second batch of purified AFL protein

Sequence of AFL lectin (Q4WW81 whole entry): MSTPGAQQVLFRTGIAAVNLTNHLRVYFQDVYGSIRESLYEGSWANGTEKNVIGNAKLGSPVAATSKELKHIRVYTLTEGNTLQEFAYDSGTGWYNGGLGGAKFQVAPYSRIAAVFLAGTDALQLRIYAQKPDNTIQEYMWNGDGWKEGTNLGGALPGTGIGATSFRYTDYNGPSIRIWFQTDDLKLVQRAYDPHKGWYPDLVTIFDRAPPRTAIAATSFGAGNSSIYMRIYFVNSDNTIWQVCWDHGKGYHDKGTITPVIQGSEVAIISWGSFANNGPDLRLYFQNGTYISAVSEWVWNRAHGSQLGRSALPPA

Row | Structure (SMILES) | Kd (AFL lectin) | −TΔS (AFL lectin; Table 1, first AFL batch) | −ΔG (AFL lectin; Table 1, first AFL batch) | −ΔH (AFL lectin; Table 1, first AFL batch) | Stoichiometry (AFL lectin; Table 1, first AFL batch) | β (β-factor, relative potency per ligand) (AFL lectin) | Kd (AFL lectin; [2]) | N (stoichiometry) (AFL lectin; [2]) | −TΔS (AFL lectin; [2]) | −ΔG (AFL lectin; [2]) | −ΔH (AFL lectin; [2]) | also measured
1 | C[C@@H]1O[C@@H](OCc2cn(CCOCCOCCOCCn3cc(CO[C@@H]4O[C@@H](C)[C@@H](O)[C@@H](O)[C@@H]4O)nn3)nn2)[C@@H](O)[C@H](O)[C@@H]1O [Compound 24] | 3800 ± 300 nM | 11 ± 0.72 kcal/mol | 7.41 ± 0.048 kcal/mol | 18.4 ± 0.72 kcal/mol | 2.12 and 2.12 ± 0.03 | 68 | – | – | – | – | – | decrease of the adhesion of the conidia ([1]; 100 μM in fucose equivalent): 37%
2 | C[C@@H]1O[C@@H](OCc2cn(CCOCCOCCOCCOCCOCCOCCOCCOCCOCCOCCOCCn3cc(CO[C@@H]4O[C@@H](C)[C@@H](O)[C@@H](O)[C@@H]4O)nn3)nn2)[C@@H](O)[C@H](O)[C@@H]1O [Compound 26] | 550 nM | 8.6 ± 0.14 kcal/mol | 8.58 ± 0.22 kcal/mol | 17.7 ± 1.4 kcal/mol | 2.35 and 2.35 ± 0.31 | 470 | – | – | – | – | – | residual adhesion of the conidia on the pneumocytes ([1]; 10 μM in fucose equivalent): 76%
3 | CC1OC(OCCOCCOCc2cn(CC3OC4OC5C(Cn6cc(COCCOCCOC7OC(C)C(O)C(O)C7O)nn6)OC(OC6C(Cn7cc(COCCOCCOC8OC(C)C(O)C(O)C8O)nn7)OC(OC7C(Cn8cc(COCCOCCOC9OC(C)C(O)C(O)C9O)nn8)OC(OC8C(Cn9cc(COCCOCCOC%10OC(C)C(O)C(O)C%10O)nn9)OC(OC9C(Cn%10cc(COCCOCCOC%11OC(C)C(O)C(O)C%11O)nn%10)OC(OC3C(O)C4O)C(O)C9O)C(O)C8O)C(O)C7O)C(O)C6O)C(O)C5O)nn2)C(O)C(O)C1O (stereo not drawn) [Compound 29] | – | 30 ± 0.14 kcal/mol | 8.48 ± 0.024 kcal/mol | 38.5 ± 0.24 kcal/mol | 1.01 ± 0.02 | 144 | 530 ± 40 nM | 1.20 ± 0.09 | 32.53 ± 3.61 kcal/mol | 8.58 ± 0.048 kcal/mol | 41.06 ± 3.66 kcal/mol | Kd (AFL lectin; Table 1, first AFL batch): 600 nM; Kd values (in words) (AFL lectin; first AFL batch): sub-micromolar range; enthalpic contribution, times higher than the reference monovalent compound 33 (AFL lectin; first AFL batch): 2.7; increase of the −TΔS factor versus the reference monovalent compound (AFL lectin; first AFL batch): 3.3; formation of spore agglomerates (microscope observation) ([1]; A. fumigatus spores, compound 29 at 10 μM): formation of A. fumigatus spore agglomerates
4 | CC1OC(OCCOCCOCCOCCOCc2cn(CC3OC4OC5C(Cn6cc(COCCOCCOCCOCCOC7OC(C)C(O)C(O)C7O)nn6)OC(OC6C(Cn7cc(COCCOCCOCCOCCOC8OC(C)C(O)C(O)C8O)nn7)OC(OC7C(Cn8cc(COCCOCCOCCOCCOC9OC(C)C(O)C(O)C9O)nn8)OC(OC8C(Cn9cc(COCCOCCOCCOCCOC%10OC(C)C(O)C(O)C%10O)nn9)OC(OC9C(Cn%10cc(COCCOCCOCCOCCOC%11OC(C)C(O)C(O)C%11O)nn%10)OC(OC3C(O)C4O)C(O)C9O)C(O)C8O)C(O)C7O)C(O)C6O)C(O)C5O)nn2)C(O)C(O)C1O (stereo not drawn) [Compound 30] | – | 43.3 ± 1.9 kcal/mol | 9.18 ± 0.048 kcal/mol | 52.6 ± 1.9 kcal/mol | 0.77 ± 0.04 | 479 | 130 ± 10 nM | 0.95 ± 0.02 | 40.49 ± 0.14 kcal/mol | 9.39 ± 0.072 kcal/mol | 49.93 ± 0.239 kcal/mol | Kd (AFL lectin; Table 1, first AFL batch): 180 nM; Kd (AFL lectin; first AFL batch): 180 nM; Kd values (in words) (AFL lectin; first AFL batch): sub-micromolar range; enthalpic contribution, times higher than the reference monovalent compound 33 (AFL lectin; first AFL batch): 3.7; increase of the −TΔS factor versus the reference monovalent compound (AFL lectin; first AFL batch): 4.7
5 | C[C@@H]1O[C@@H](OCc2cn(CCOCCOCCOCCO)nn2)[C@@H](O)[C@H](O)[C@@H]1O [Compound 33, reference compound] | 167000 nM | 9.08 ± 2.2 kcal/mol | 5.26 ± 0.24 kcal/mol | 14.3 ± 1.9 kcal/mol | 4.0 ± 0.3 | 3 | – | – | – | – | – | anti-adhesive activity (in words) ([1]; concentrations of 1 and 10 μM in fucose equivalent): absence of anti-adhesive activity
6 | CC1OC(OCc2cn(CCOCCOCCOCCSCC[Si]34O[Si]5(CCSCCOCCOCCOCCn6cc(COC7OC(C)C(O)C(O)C7O)nn6)O[Si]6(CCSCCOCCOCCOCCn7cc(COC8OC(C)C(O)C(O)C8O)nn7)O[Si](CCSCCOCCOCCOCCn7cc(COC8OC(C)C(O)C(O)C8O)nn7)(O3)O[Si]3(CCSCCOCCOCCOCCn7cc(COC8OC(C)C(O)C(O)C8O)nn7)O[Si](CCSCCOCCOCCOCCn7cc(COC8OC(C)C(O)C(O)C8O)nn7)(O4)O[Si](CCSCCOCCOCCOCCn4cc(COC7OC(C)C(O)C(O)C7O)nn4)(O5)O[Si](CCSCCOCCOCCOCCn4cc(COC5OC(C)C(O)C(O)C5O)nn4)(O6)O3)nn2)C(O)C(O)C1O (stereo not drawn) [Compound 40] | 400 ± 70 nM | – | – | – | – | – | – | – | – | – | – | N (stoichiometry) (AFL lectin): 0.84 ± 0.02; −TΔS (AFL lectin): 51.82 ± 4.04 kcal/mol; −ΔG (AFL lectin): 8.75 ± 0.096 kcal/mol; −ΔH (AFL lectin): 60.44 ± 4.06 kcal/mol
7 | CC1OC(OCc2cn(CC3OC4OC5C(Cn6cc(COC7OC(C)C(O)C(O)C7O)nn6)OC(OC6C(Cn7cc(COC8OC(C)C(O)C(O)C8O)nn7)OC(OC7C(Cn8cc(COC9OC(C)C(O)C(O)C9O)nn8)OC(OC8C(Cn9cc(COC%10OC(C)C(O)C(O)C%10O)nn9)OC(OC9C(Cn%10cc(COC%11OC(C)C(O)C(O)C%11O)nn%10)OC(OC3C(O)C4O)C(O)C9O)C(O)C8O)C(O)C7O)C(O)C6O)C(O)C5O)nn2)C(O)C(O)C1O (stereo not drawn) [Compound 44] | – | – | – | – | – | – | 1940 ± 500 nM | 1.36 ± 0.01 | 21.6 ± 0.621 kcal/mol | 7.82 ± 0.17 kcal/mol | 29.37 ± 0.454 kcal/mol | –
8 | OC[C@H]1O[C@@H]2O[C@H]3[C@H](O)[C@@H](O)[C@@H](O[C@H]4[C@H](O)[C@@H](O)[C@@H](O[C@H]5[C@H](O)[C@@H](O)[C@@H](O[C@H]6[C@H](O)[C@@H](O)[C@@H](O[C@H]7[C@H](O)[C@@H](O)[C@@H](O[C@H]1[C@H](O)[C@H]2O)O[C@@H]7CO)O[C@@H]6CO)O[C@@H]5CO)O[C@@H]4CO)O[C@@H]3CO [free α-cyclodextrine, α-cyclodextrine, reference compound] | – | – | – | – | – | – | – | – | – | – | – | affinity for the AFL lectin (in words) (AFL lectin): no affinity
9 | CO[C@@H]1O[C@@H](C)[C@@H](O)[C@@H](O)[C@@H]1O [αMeFuc, methylfucoside, reference compound] | – | 6.41 kcal/mol | 4.04 kcal/mol | 11.5 kcal/mol | 5 | – | – | 3.3 ± 0.42 | 9.97 ± 1.48 kcal/mol | 5.4 ± 0.0048 kcal/mol | 15.4 ± 1.48 kcal/mol | Kd (AFL lectin; Table 1, first AFL batch, read-out: Kd): 517000 nM; Kd (AFL lectin; Table 2, second batch of purified AFL protein, read-out: Kd): 110000 nM
